From PubChem BioAssay AID1963850 (Molecular Pharmacology Branch, DTP, NCI, 2024)

Tested on: 192522-019-R-J2-PDC complex tumor spheroid viability
Test: Anticancer human tumor 192522-019-R-J2-PDC patient-derived colon adenocarcinoma cell line growth inhibition [POLQ]
Details: for IC50: curve of first compound; for viability, T/C: stronger effect = lower value
In short: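 Patient-derived tumour cells were co-cultured with HUVEC and mesenchymal stem cells as multicellular spheroids at 37 °C. They were treated with POLQ inhibitors (novobiocin, ART-558, RP6685) alone or combined with other agents. Top concentrations were at or near clinical Cmax (otherwise 10 microM; SN-38 at 1 microM), decreasing in half-log steps.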

[1] = second compound 0.0316 µM, first compound 0.0316 µM
[2] = second compound 0.0316 µM, first compound 0.1 µM
[3] = second compound 0.0316 µM, first compound 0.316 µM
[4] = second compound 0.0316 µM, first compound 1 µM
[5] = second compound 0.0316 µM, first compound 3.16 µM
[6] = second compound 0.0316 µM, first compound 10 µM
[7] = second compound 0.1 µM, first compound 0.0316 µM
[8] = second compound 0.1 µM, first compound 0.1 µM
[9] = second compound 0.1 µM, first compound 0.316 µM
[10] = second compound 0.1 µM, first compound 1 µM
[11] = second compound 0.1 µM, first compound 3.16 µM
[12] = second compound 0.1 µM, first compound 10 µM
[13] = second compound 0.316 µM, first compound 0.0316 µM
[14] = second compound 0.316 µM, first compound 0.1 µM
[15] = second compound 0.316 µM, first compound 0.316 µM
[16] = second compound 0.316 µM, first compound 1 µM
[17] = second compound 0.316 µM, first compound 3.16 µM
[18] = second compound 0.316 µM, first compound 10 µM
[19] = second compound 1 µM, first compound 0.0316 µM
[20] = second compound 1 µM, first compound 0.1 µM
[21] = second compound 1 µM, first compound 0.316 µM
[22] = second compound 1 µM, first compound 1 µM
[23] = second compound 1 µM, first compound 3.16 µM
[24] = second compound 1 µM, first compound 10 µM
[25] = second compound 3.16 µM, first compound 0.0316 µM
[26] = second compound 3.16 µM, first compound 0.1 µM
[27] = second compound 3.16 µM, first compound 0.316 µM
[28] = second compound 3.16 µM, first compound 1 µM
[29] = second compound 3.16 µM, first compound 3.16 µM
[30] = second compound 3.16 µM, first compound 10 µM
[31] = second compound 10 µM, first compound 0.0316 µM
[32] = second compound 10 µM, first compound 0.1 µM
[33] = second compound 10 µM, first compound 0.316 µM
[34] = second compound 10 µM, first compound 1 µM
[35] = second compound 10 µM, first compound 3.16 µM
[36] = second compound 10 µM, first compound 10 µM
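Further: spheroids exposed to drugs for seven days before reading.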
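Wherever viability, T/C is given: 100% = DMSO vehicle control viability in luminescence.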

C#Cc1c(F)ccc2cc(O)cc(-c3ncc4c(N5CC6CCC(C5)N6)nc(OCC56CCCN5CC(F)C6)nc4c3F)c12 (stereo not given) + COC1C(OC(N)=O)C(O)C(Oc2ccc3c(O)c(NC(=O)c4ccc(O)c(CC=C(C)C)c4)c(=O)oc3c2C)OC1(C)C
IC50 (second compound 0.0316 µM): > 10 µM
IC50 (second compound 0.1 µM): > 10 µM
IC50 (second compound 0.316 µM): > 10 µM
IC50 (second compound 1 µM): > 10 µM
IC50 (second compound 3.16 µM): > 10 µM
IC50 (second compound 10 µM): > 10 µM
viability, T/C [1]: 97.7%
viability, T/C [2]: 78.8%
viability, T/C [3]: 81.6%
viability, T/C [4]: 76.1%
viability, T/C [5]: 73.4%
viability, T/C [6]: 68%
viability, T/C [7]: 98%
viability, T/C [8]: 83.9%
viability, T/C [9]: 86.5%
viability, T/C [10]: 73.3%
viability, T/C [11]: 70.2%
viability, T/C [12]: 72.1%
viability, T/C [13]: 98.7%
viability, T/C [14]: 88.4%
viability, T/C [15]: 82.9%
viability, T/C [16]: 77.5%
viability, T/C [17]: 78.9%
viability, T/C [18]: 72.1%
viability, T/C [19]: 94.8%
viability, T/C [20]: 86.7%
viability, T/C [21]: 80.1%
viability, T/C [22]: 76.8%
viability, T/C [23]: 73.2%
viability, T/C [24]: 70.7%
viability, T/C [25]: 95.1%
viability, T/C [26]: 90.2%
viability, T/C [27]: 82.3%
viability, T/C [28]: 73.2%
viability, T/C [29]: 75.9%
viability, T/C [30]: 71.7%
viability, T/C [31]: 95.2%
viability, T/C [32]: 84.1%
viability, T/C [33]: 79.6%
viability, T/C [34]: 78.7%
viability, T/C [35]: 74%
viability, T/C [36]: 62.8%

CC1COCCN1c1cc(C2(O)CC3CCC(C2)O3)c2cnn(-c3ccn[nH]3)c2n1 (stereo not given) + COC1C(OC(N)=O)C(O)C(Oc2ccc3c(O)c(NC(=O)c4ccc(O)c(CC=C(C)C)c4)c(=O)oc3c2C)OC1(C)C
IC50 (second compound 0.0316 µM): 0.227 µM
IC50 (second compound 0.1 µM): 0.242 µM
IC50 (second compound 0.316 µM): 0.314 µM
IC50 (second compound 1 µM): 0.254 µM
IC50 (second compound 3.16 µM): 0.239 µM
IC50 (second compound 10 µM): 0.247 µM
viability, T/C [1]: 95.5%
viability, T/C [2]: 70.3%
viability, T/C [3]: 41.9%
viability, T/C [4]: 33.7%
viability, T/C [5]: 42.8%
viability, T/C [6]: 46.5%
viability, T/C [7]: 102%
viability, T/C [8]: 81.8%
viability, T/C [9]: 39.8%
viability, T/C [10]: 33%
viability, T/C [11]: 41.6%
viability, T/C [12]: 47%
viability, T/C [13]: 101%
viability, T/C [14]: 83.4%
viability, T/C [15]: 50.8%
viability, T/C [16]: 36.9%
viability, T/C [17]: 40.7%
viability, T/C [18]: 48.5%
viability, T/C [19]: 96.3%
viability, T/C [20]: 73.5%
viability, T/C [21]: 45%
viability, T/C [22]: 33.5%
viability, T/C [23]: 41.7%
viability, T/C [24]: 53.1%
viability, T/C [25]: 94%
viability, T/C [26]: 77.4%
viability, T/C [27]: 39.8%
viability, T/C [28]: 34.4%
viability, T/C [29]: 41.3%
viability, T/C [30]: 49.1%
viability, T/C [31]: 93.1%
viability, T/C [32]: 70.8%
viability, T/C [33]: 42.1%
viability, T/C [34]: 38.5%
viability, T/C [35]: 45.9%
viability, T/C [36]: 51%

CCc1cc2c(N3CCc4c(cc(Cn5ccnc5)cc4-c4cn(C)nc4C(F)(F)F)C3=O)cc(C)nc2c(OC)n1 + COC1C(OC(N)=O)C(O)C(Oc2ccc3c(O)c(NC(=O)c4ccc(O)c(CC=C(C)C)c4)c(=O)oc3c2C)OC1(C)C
IC50 (second compound 0.0316 µM): > 10 µM
IC50 (second compound 0.1 µM): > 10 µM
IC50 (second compound 0.316 µM): > 10 µM
IC50 (second compound 1 µM): > 10 µM
IC50 (second compound 3.16 µM): > 10 µM
IC50 (second compound 10 µM): > 10 µM
viability, T/C [1]: 95.6%
viability, T/C [2]: 90.6%
viability, T/C [3]: 90.5%
viability, T/C [4]: 82.8%
viability, T/C [5]: 79.2%
viability, T/C [6]: 60.7%
viability, T/C [7]: 94.2%
viability, T/C [8]: 94.3%
viability, T/C [9]: 81.5%
viability, T/C [10]: 82.4%
viability, T/C [11]: 72.3%
viability, T/C [12]: 67.4%
viability, T/C [13]: 101%
viability, T/C [14]: 96.7%
viability, T/C [15]: 96.1%
viability, T/C [16]: 81.6%
viability, T/C [17]: 82.6%
viability, T/C [18]: 69.7%
viability, T/C [19]: 99%
viability, T/C [20]: 96.8%
viability, T/C [21]: 85.1%
viability, T/C [22]: 84.3%
viability, T/C [23]: 68.5%
viability, T/C [24]: 72.4%
viability, T/C [25]: 95.6%
viability, T/C [26]: 98.8%
viability, T/C [27]: 87.1%
viability, T/C [28]: 83.9%
viability, T/C [29]: 74.6%
viability, T/C [30]: 66.2%
viability, T/C [31]: 102%
viability, T/C [32]: 91.4%
viability, T/C [33]: 87.5%
viability, T/C [34]: 80.6%
viability, T/C [35]: 88.9%
viability, T/C [36]: 73.4%

COc1cc2cc(C(=O)CCC(=O)O)sc2cc1OC + COC1C(OC(N)=O)C(O)C(Oc2ccc3c(O)c(NC(=O)c4ccc(O)c(CC=C(C)C)c4)c(=O)oc3c2C)OC1(C)C
IC50 (second compound 0.0316 µM): > 10 µM
IC50 (second compound 0.1 µM): > 10 µM
IC50 (second compound 0.316 µM): > 10 µM
IC50 (second compound 1 µM): > 10 µM
IC50 (second compound 3.16 µM): > 10 µM
IC50 (second compound 10 µM): > 10 µM
viability, T/C [1]: 101%
viability, T/C [2]: 94.3%
viability, T/C [3]: 97.7%
viability, T/C [4]: 101%
viability, T/C [5]: 102%
viability, T/C [6]: 91.9%
viability, T/C [7]: 110%
viability, T/C [8]: 98%
viability, T/C [9]: 96.9%
viability, T/C [10]: 97%
viability, T/C [11]: 94.9%
viability, T/C [12]: 106%
viability, T/C [13]: 105%
viability, T/C [14]: 88.7%
viability, T/C [15]: 98.6%
viability, T/C [16]: 105%
viability, T/C [17]: 96.9%
viability, T/C [18]: 105%
viability, T/C [19]: 105%
viability, T/C [20]: 97.7%
viability, T/C [21]: 104%
viability, T/C [22]: 111%
viability, T/C [23]: 105%
viability, T/C [24]: 101%
viability, T/C [25]: 103%
viability, T/C [26]: 103%
viability, T/C [27]: 107%
viability, T/C [28]: 105%
viability, T/C [29]: 114%
viability, T/C [30]: 96.9%
viability, T/C [31]: 102%
viability, T/C [32]: 88.7%
viability, T/C [33]: 109%
viability, T/C [34]: 109%
viability, T/C [35]: 112%
viability, T/C [36]: 101%

O=C(Nc1ccc(O)c(NS(=O)(=O)c2ccc(F)cc2)c1)c1ccc(-c2ccccc2)cc1 + COC1C(OC(N)=O)C(O)C(Oc2ccc3c(O)c(NC(=O)c4ccc(O)c(CC=C(C)C)c4)c(=O)oc3c2C)OC1(C)C
IC50 (second compound 0.0316 µM): > 10 µM
IC50 (second compound 0.1 µM): > 10 µM
IC50 (second compound 0.316 µM): > 10 µM
IC50 (second compound 1 µM): > 10 µM
IC50 (second compound 3.16 µM): > 10 µM
IC50 (second compound 10 µM): > 10 µM
viability, T/C [1]: 109%
viability, T/C [2]: 97.3%
viability, T/C [3]: 95.8%
viability, T/C [4]: 92.1%
viability, T/C [5]: 93%
viability, T/C [6]: 101%
viability, T/C [7]: 105%
viability, T/C [8]: 88.9%
viability, T/C [9]: 97.5%
viability, T/C [10]: 102%
viability, T/C [11]: 95.5%
viability, T/C [12]: 104%
viability, T/C [13]: 103%
viability, T/C [14]: 89.6%
viability, T/C [15]: 98.3%
viability, T/C [16]: 93.5%
viability, T/C [17]: 94.7%
viability, T/C [18]: 96.6%
viability, T/C [19]: 95.7%
viability, T/C [20]: 93.3%
viability, T/C [21]: 111%
viability, T/C [22]: 105%
viability, T/C [23]: 95.5%
viability, T/C [24]: 94.3%
viability, T/C [25]: 104%
viability, T/C [26]: 103%
viability, T/C [27]: 95.7%
viability, T/C [28]: 105%
viability, T/C [29]: 108%
viability, T/C [30]: 102%
viability, T/C [31]: 95.9%
viability, T/C [32]: 98.2%
viability, T/C [33]: 120%
viability, T/C [34]: 97.6%
viability, T/C [35]: 113%
viability, T/C [36]: 105%
